Assays:
RET = RET (Homo sapiens, UniProt P07949); assay: Enzymatic kinase assay; assay type: biochemical; conditions: enzymatic; read-out: RET IC50 values (converted)
Method: (§1) Two methods were used to analyze phosphorylated peptides and proteins produced by the listed tyrosine and serine/threonine-specific protein kinases: either using a filter-binding assay (FB), or using a flashplate assay (FP). The activities of protein kinases were assayed in the presence or absence of inhibitors, by measuring the incorporation of ^33P from [γ^33P]ATP into appropriate substrates.
(§2) 96-well polypropylene microplates were used to assay the activity in the FB mode. To determine the inhibitory activity of compounds 10 μL of compound dilutions were pipetted into 96-well plates followed by the addition of 10 μL of assay mix and 10 μL of individual enzymes. With the addition of the enzymes the reactions were initiated and continued at RT. […] The final concentration of DMSO in the enzyme assays was 1%.
(§3) Flashplates are available as 96-well standard (STFPs) or as streptavidin-(SAFPs) or nickel coated FPs (NiFPs) from Perkin Elmer. STFPs are 96-well polystyrene microplates in which the interior of each well is permanently coated with a thin layer of polystyrene-based scintillant. Streptavidin flashplates (SAFP) are 96 or 384-well STFPs coated with streptavidin. SAFPs are suitable for a wide variety of assay applications which utilize biotinylated capture molecules. NiFP or nickel chelate flashplates are 96- or 384-well STFPs coated with nickel chelate. NiFPs are designed for in-plate, radiometric assays which utilize 4- or 6-histidine tagged proteins and peptides.
(§4) All kinase assays were performed in STFPs for 60 mins at RT and stopped with 50 μL of 0.5% H3PO4 except PKA which were carried out in polypropylene 96- and 384-well plates, respectively. […] All wells were then washed three times with 200 μL of 0.5% H3PO4 and the plates were dried at room temperature. The plates were sealed and counted in a microplate scintillation counter (TopCount NXT, TopCount NXT HTS). The final concentration of DMSO in the enzyme assays was 1%.

cABLT315 = cABLT315 (Homo sapiens, UniProt P00519, T315I); assay: Enzymatic kinase assay; assay type: biochemical
Method: as §1, §2, §3, §4

cMET = cMET (Homo sapiens, UniProt P08581); assay: Enzymatic kinase assay; assay type: biochemical
Method: as §1, §2, §3, §4

GSK3beta = GSK3beta (Homo sapiens, UniProt P49841); assay: Enzymatic kinase assay; assay type: biochemical
Method: as §1, §2, §3, §4

PDGFRa = PDGFRa (Homo sapiens, UniProt P16234); assay: Enzymatic kinase assay; assay type: biochemical
Chain of PDGFRa (P16234 24-1089, species assumed): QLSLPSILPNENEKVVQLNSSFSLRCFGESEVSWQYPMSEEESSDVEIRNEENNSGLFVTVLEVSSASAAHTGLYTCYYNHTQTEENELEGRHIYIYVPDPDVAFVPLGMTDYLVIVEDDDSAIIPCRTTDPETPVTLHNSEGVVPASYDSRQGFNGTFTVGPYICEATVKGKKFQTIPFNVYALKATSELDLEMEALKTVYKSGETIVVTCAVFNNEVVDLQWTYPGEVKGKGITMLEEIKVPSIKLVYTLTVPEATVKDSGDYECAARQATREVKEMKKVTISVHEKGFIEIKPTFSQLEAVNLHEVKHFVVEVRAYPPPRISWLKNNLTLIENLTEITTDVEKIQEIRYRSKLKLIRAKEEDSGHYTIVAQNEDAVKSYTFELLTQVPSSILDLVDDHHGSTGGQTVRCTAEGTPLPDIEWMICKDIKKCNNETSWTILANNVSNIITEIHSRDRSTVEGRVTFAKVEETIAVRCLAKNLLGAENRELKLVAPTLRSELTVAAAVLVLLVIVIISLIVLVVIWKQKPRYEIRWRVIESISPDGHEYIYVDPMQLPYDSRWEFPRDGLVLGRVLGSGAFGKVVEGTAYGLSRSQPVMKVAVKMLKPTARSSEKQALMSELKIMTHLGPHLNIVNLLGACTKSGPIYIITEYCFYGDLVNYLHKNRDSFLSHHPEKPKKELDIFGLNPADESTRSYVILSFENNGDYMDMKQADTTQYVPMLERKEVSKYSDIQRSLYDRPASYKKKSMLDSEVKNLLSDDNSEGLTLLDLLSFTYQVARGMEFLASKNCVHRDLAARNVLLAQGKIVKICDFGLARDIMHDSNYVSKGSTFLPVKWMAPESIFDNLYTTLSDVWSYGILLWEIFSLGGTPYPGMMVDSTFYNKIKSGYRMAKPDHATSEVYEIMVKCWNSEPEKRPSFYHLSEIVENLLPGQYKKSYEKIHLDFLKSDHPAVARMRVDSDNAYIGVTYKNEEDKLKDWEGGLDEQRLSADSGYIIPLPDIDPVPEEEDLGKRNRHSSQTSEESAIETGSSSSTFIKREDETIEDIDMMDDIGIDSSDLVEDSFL
Method: as §1, §2, §3, §4

Aurora A = target: T1, Aurora A (Homo sapiens, UniProt O14965); assay: Enzymatic kinase assay; assay type: biochemical
T1 sequence (O14965 1-403): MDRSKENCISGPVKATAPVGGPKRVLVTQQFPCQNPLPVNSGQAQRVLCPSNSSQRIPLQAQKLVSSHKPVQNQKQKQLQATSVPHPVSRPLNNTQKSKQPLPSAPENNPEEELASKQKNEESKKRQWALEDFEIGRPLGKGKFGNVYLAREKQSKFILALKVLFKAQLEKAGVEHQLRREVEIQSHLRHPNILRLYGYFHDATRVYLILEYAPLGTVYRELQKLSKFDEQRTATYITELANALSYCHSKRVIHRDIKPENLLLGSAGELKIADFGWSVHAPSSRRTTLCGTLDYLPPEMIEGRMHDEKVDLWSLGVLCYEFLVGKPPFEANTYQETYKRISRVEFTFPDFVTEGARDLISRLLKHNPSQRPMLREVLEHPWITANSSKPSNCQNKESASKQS
Method: as §1, §2, §3, §4

ERK2 = ERK2 (Homo sapiens, UniProt P28482); assay: Enzymatic kinase assay; assay type: biochemical
Method: as §1, §2, §3, §4

KDR = KDR (Homo sapiens, UniProt P35968); assay: Enzymatic kinase assay; assay type: biochemical
Method: as §1, §2, §3, §4

LCK = LCK (Homo sapiens, UniProt P06239); assay: Enzymatic kinase assay; assay type: biochemical
Method: as §1, §2, §3, §4

cKIT = cKIT (Homo sapiens, UniProt P10721); assay: Enzymatic kinase assay; assay type: biochemical
Chain of cKIT (P10721 26-976): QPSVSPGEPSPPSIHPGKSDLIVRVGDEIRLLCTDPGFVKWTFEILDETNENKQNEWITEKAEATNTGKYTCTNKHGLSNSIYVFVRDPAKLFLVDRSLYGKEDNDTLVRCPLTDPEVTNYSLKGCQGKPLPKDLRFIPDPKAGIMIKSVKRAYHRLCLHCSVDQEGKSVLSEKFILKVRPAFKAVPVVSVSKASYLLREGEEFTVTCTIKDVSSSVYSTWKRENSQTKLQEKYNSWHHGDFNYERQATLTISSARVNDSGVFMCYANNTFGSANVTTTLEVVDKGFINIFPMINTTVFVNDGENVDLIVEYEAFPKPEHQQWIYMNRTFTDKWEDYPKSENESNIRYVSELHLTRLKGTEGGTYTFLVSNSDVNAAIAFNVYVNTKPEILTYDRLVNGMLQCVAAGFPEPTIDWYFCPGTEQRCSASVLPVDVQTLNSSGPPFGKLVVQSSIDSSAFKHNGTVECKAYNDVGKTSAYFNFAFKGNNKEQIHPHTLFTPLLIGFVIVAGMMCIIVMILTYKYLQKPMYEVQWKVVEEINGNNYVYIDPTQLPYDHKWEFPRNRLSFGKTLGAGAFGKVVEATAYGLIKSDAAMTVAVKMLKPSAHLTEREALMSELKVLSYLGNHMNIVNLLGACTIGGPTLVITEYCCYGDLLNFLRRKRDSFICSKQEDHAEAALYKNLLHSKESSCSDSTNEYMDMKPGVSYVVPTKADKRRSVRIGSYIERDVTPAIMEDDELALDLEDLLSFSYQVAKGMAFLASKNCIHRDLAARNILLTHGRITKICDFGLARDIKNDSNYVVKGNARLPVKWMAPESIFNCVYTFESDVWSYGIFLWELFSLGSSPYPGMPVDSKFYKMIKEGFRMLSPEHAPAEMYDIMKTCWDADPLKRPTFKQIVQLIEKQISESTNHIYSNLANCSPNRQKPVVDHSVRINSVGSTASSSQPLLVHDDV
Method: as §1, §2, §3, §4

TYK2 = TYK2 (Homo sapiens, UniProt P29597); assay: Enzymatic kinase assay; assay type: biochemical
Method: as §1, §2, §3, §4

P38a = P38a (Homo sapiens, UniProt Q16539); assay: Enzymatic kinase assay; assay type: biochemical
Chain of P38a (Q16539 whole entry): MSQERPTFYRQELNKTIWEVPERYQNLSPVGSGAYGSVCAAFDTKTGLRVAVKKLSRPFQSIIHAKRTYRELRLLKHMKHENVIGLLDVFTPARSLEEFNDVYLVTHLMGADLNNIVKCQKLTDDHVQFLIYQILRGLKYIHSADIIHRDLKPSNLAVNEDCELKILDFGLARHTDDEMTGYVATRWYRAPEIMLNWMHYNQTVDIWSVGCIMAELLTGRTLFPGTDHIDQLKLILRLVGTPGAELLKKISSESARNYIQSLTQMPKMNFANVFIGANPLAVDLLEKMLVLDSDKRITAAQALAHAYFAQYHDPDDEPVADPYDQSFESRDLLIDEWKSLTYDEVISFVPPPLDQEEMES
Method: as §1, §2, §3, §4

FGFR-4 = FGFR-4 (Homo sapiens, UniProt P22455); assay: Enzymatic kinase assay; assay type: biochemical
Chain of FGFR-4 (P22455 22-802, species assumed): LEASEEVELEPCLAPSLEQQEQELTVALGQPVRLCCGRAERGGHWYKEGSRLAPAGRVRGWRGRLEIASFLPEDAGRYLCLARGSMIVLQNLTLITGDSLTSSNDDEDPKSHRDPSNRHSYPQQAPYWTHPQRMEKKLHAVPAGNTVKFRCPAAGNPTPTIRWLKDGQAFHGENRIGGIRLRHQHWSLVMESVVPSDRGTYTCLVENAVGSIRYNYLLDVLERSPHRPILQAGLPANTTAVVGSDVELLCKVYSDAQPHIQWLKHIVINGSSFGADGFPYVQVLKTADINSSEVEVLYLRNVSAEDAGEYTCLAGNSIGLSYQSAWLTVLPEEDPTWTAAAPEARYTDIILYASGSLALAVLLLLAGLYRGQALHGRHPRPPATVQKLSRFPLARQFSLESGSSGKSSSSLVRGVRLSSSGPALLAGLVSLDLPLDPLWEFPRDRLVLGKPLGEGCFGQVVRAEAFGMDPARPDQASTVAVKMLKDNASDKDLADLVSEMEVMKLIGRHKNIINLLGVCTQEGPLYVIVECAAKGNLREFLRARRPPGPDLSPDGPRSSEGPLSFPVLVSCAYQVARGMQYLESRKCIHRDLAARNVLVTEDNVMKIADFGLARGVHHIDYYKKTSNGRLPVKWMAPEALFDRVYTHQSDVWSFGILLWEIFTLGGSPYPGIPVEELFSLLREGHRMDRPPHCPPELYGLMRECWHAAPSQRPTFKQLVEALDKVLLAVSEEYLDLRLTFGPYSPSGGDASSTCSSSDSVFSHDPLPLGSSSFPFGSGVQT
Method: as §1, §2, §3, §4

HER2 = HER2 (Homo sapiens, UniProt P04626); assay: Enzymatic kinase assay; assay type: biochemical
Method: as §1, §2, §3, §4

JAK2 = JAK2 (Homo sapiens, UniProt O60674); assay: Enzymatic kinase assay; assay type: biochemical
Method: as §1, §2, §3, §4

COT1 = COT1 (Homo sapiens, UniProt P41279); assay: Enzymatic kinase assay; assay type: biochemical
Chain of COT1 (P41279 whole entry): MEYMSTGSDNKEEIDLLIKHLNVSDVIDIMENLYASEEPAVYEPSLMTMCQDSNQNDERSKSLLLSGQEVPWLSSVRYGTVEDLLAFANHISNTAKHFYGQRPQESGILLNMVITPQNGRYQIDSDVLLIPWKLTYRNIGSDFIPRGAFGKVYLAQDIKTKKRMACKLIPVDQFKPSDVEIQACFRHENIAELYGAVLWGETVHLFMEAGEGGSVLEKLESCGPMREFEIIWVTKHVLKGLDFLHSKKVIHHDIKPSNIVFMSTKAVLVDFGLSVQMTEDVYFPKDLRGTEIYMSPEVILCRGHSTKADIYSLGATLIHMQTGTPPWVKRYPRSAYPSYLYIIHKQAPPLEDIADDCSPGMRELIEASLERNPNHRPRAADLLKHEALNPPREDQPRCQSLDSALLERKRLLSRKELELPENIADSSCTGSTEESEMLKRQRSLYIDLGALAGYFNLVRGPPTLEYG
Method: as §1, §2, §3, §4

MK2 = MK2 (Homo sapiens, UniProt P49137); assay: Enzymatic kinase assay; assay type: biochemical
Chain of MK2 (P49137 whole entry, species assumed): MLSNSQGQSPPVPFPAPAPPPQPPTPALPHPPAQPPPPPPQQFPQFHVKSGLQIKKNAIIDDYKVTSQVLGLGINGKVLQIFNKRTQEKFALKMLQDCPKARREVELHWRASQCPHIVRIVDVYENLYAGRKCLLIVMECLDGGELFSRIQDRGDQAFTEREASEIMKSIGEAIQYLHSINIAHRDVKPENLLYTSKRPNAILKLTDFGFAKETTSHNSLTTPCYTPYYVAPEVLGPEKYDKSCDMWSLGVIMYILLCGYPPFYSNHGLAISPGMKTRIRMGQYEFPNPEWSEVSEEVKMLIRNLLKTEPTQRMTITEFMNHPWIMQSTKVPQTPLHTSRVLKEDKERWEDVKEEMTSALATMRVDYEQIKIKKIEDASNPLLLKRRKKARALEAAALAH
Method: as §1, §2, §3, §4

EphA4 = EphA4 (Homo sapiens, UniProt P54764); assay: Enzymatic kinase assay; assay type: biochemical
Chain of EphA4 (P54764 20-986, species assumed): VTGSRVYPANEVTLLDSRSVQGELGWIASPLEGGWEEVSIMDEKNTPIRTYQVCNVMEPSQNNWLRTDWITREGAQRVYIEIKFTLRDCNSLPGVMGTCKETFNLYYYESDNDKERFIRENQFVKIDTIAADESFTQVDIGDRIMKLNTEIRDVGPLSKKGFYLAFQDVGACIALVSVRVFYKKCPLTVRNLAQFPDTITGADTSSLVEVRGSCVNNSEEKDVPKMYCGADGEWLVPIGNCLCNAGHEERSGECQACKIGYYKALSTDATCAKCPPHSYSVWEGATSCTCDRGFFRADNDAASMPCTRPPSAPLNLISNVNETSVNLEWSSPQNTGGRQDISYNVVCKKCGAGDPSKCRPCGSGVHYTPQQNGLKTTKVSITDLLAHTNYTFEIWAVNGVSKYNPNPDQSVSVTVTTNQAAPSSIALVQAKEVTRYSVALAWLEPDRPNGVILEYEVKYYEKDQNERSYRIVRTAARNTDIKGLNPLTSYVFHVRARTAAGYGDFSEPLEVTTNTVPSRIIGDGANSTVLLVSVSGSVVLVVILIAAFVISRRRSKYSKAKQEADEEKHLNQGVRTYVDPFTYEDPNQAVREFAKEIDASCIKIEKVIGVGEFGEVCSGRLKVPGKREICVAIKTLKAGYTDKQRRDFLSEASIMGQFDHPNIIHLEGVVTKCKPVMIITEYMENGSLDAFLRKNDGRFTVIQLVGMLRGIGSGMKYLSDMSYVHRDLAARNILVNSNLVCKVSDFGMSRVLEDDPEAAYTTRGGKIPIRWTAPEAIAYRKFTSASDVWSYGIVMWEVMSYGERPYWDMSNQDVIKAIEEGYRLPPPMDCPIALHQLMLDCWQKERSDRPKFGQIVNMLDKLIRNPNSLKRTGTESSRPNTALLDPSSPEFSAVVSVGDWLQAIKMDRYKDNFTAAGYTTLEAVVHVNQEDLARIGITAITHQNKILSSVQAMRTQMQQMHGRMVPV
Method: as §1, §2, §3, §4

CDK2A = CDK2A (Homo sapiens, UniProt P24941); assay: Enzymatic kinase assay; assay type: biochemical
Method: as §1, §2, §3, §4

IGF1R = IGF1R (Homo sapiens, UniProt P08069); assay: Enzymatic kinase assay (filter-binding/flashplate); assay type: biochemical
Method: as §1, §2, §3, §4

InsR = InsR (Homo sapiens, UniProt P06213); assay: Enzymatic kinase assay (filter-binding/flashplate); assay type: biochemical; conditions: enzymatic; read-out: InsR IC50 values
Method: as §1, §2, §3, §4

hERG channels = hERG channels (Homo sapiens, UniProt Q12809); assay: biochemical

| SMILES | IC50 (RET) | IC50 (cABLT315) | IC50 (cMET) | IC50 (GSK3beta) | IC50 (PDGFRa) | IC50 (Aurora A) | IC50 (ERK2) | IC50 (KDR) | IC50 (LCK) | IC50 (cKIT) | IC50 (TYK2) | IC50 (P38a) | IC50 (FGFR-4) | IC50 (HER2) | IC50 (JAK2) | IC50 (COT1) | IC50 (MK2) | IC50 (EphA4) | IC50 (CDK2A) | IC50 (InsR) | other results |
| --- | --- | --- | --- | --- | --- | --- | --- | --- | --- | --- | --- | --- | --- | --- | --- | --- | --- | --- | --- | --- | --- |
| Nc1ncnc2c1c(-c1cc(OCC34CCC(CC3)O4)ccc1F)cn2[C@H]1C[C@@H](N2CC[S+]([O-])CC2)C1 (relative stereo) [Example 34, 5-[2-Fluoro-5-(7-oxa-bicyclo[2.2.1]hept-1-ylmethoxy)-phenyl]-7-[cis-3-(1-oxo-thiomorpholin-4-yl)-cyclobutyl]-7H-pyrrolo[2,3-d]pyrimidin-4-ylamine] | > 10 µM | > 10 µM | > 10 µM | > 10 µM | > 10 µM | > 10 µM | > 10 µM | > 10 µM | > 10 µM | > 10 µM | > 10 µM | > 10 µM | > 10 µM | > 10 µM | > 10 µM | > 10 µM | > 10 µM | > 10 µM | > 10 µM | 0.075 µM | IC50 (IGF1R): 0.0084 µM |
| [2H]C1([2H])C([2H])([2H])C2(COc3ccc(F)c(-c4cn([C@H]5C[C@@H](N6CCN(C(C)=O)CC6)C5)c5ncnc(N)c45)c3)OC1([2H])C([2H])([2H])C2([2H])[2H] [Example 10, d9-1-[4-(cis-3-{4-Amino-5-[2-fluoro-5-(7-oxa-bicyclo[2.2.1]hept-1-ylmethoxy)-phenyl]-pyrrolo[2,3-d]pyrimidin-7-yl}-cyclobutyl)-piperazin-1-yl]-ethanone] | 6.4 µM | > 10 µM | > 10 µM | > 10 µM | > 10 µM | > 10 µM | > 10 µM | > 10 µM | 6.6 µM | > 10 µM | > 10 µM | > 10 µM | > 10 µM | > 10 µM | > 10 µM | > 10 µM | > 10 µM | > 10 µM | > 10 µM | 0.081 µM | IC50 (hERG channels): 6.8 µM |
| C[C@]1(O)C[C@@H](c2nc(-c3ccc4ccc(-c5ccccc5)nc4c3)c3c(N)nccn32)C1 [Linsitinib, reference compound] |  |  |  |  | > 10 µM |  |  |  |  | > 10 µM |  |  | > 10 µM |  |  | > 10 µM |  | > 10 µM |  |  | IC50 (hERG channels): 2.65 µM |

Source: patent publication US20130338152A1, “FLUOROPHENYL BICYCLIC HETEROARYL COMPOUNDS” (IRM LLC, priority 2011, published 2013)
